{"source": "patent US6291496A", "about": "“Treating cancers associated with overexpression of class I family of receptor tyrosine kinases” (priority 1999, dated 2001)", "key": {"[1]": {"system": "HER-2/neu positive colon cancer", "assay": "Example V: after resection of colon cancer", "format": "in vivo, human", "details": "patient, oral 5 mg/kg twice daily for five years after resection"}, "[2]": {"system": "HER-2/neu positive breast cancer", "assay": "Example I: adjuvant therapy after mastectomy", "format": "in vivo, human", "details": "patient, oral 5 mg/kg twice per day for five years after mastectomy"}, "[3]": {"system": "EGFR promoter", "assay": "transient transfection assay, human EGFR promoter construct ligated to luciferase, 184B5 cells", "format": "cell-based", "details": "0-25 μM, 24 hours, FIG. 2", "method": "To determine whether PPARγ ligands inhibit EGFR promoter activity, a transient transfection assay was performed, 184B5 cells were transfected with 1.8 μg of a human EGFR promoter construct ligated luciferase (-1100/-19) and 0.2 μg pSVβgal (Promega Corp., Madison, Wis.). The EGFR promoter is described in Hudson, L. G., et al, Cell 62, 1165-1175 (1990), the whole of which is incorporated herein by reference. 184B5 cells were seeded at a density of 5×10^4 cells/well in 6-well dishes and grown to 50-60% confluence. For each well 2 μg of […] DNA were introduced into cells using 8 μg of LIPOFECTAMINE (Life Technologies, Inc., Grand Island, N.Y.) as per the manufacturers instructions. Following transfection, the cells were treated with ciglitazone (0, 5, 10, 15, 20 and 25 μM) or 15-d-PGJ2 (0, 5, 10, 15, 20, and 25 μM) for 24 hours. The activities of luciferase and β-galactosidase were measured in cellular extract as described in Mestre, J. R, et al, Cancer Res. 57, 1081-1085 (1997). The results are shown in FIG. 2 where luciferase activity represents data that have been normalized to β-galactosidase activity (columns, means; bars, S. D., n=6; * means p<0.01 compared to control)."}, "[4]": {"system": "non-small cell lung carcinoma where EGFR is overexpressed", "assay": "Example VI: non-small cell lung carcinoma metastasized to liver", "format": "in vivo, human", "details": "patient, oral 5 mg/kg twice daily", "method": "After one month, PPARγ ligand administration is continued in combination with infusion of cisplatin every four weeks at 60 mg/m^2 for 12 more weeks."}, "[5]": {"system": "HER-2/neu positive breast cancer", "assay": "Example II: adjuvant therapy with PPARγ ligand and HERCEPTIN", "format": "in vivo, human", "details": "patient, oral 5 mg/kg twice daily for one year, with HERCEPTIN 250 mg IV loading then 10 weekly doses of 125 mg"}, "[6]": {"system": "HER-2/neu in 184B5/HER cells", "assay": "immunoblot for HER-2/neu in 184B5/HER cells", "format": "cell-based, human", "details": "25 μM ciglitazone or 20 μM 15-d-PGJ2, 24 hours", "excerpt": "The 184B5/HER cell line was obtained from a collaborator and was derived by stably transfecting 184B5 cells with a mutationally activated HER-2/neu oncogene; these cells form rapidly growing tumors when injected into athymic nude mice. The 184B5/HER cell line is described in Pierce, J. H., et al., Oncogene 6, 1189-1194 (1991). The BT-474 cell line is a human breast cancer adenocarcinoma cell line which overexpresses HER-2/neu, and was obtained from the American Type Culture Collection (Manassas, Va.) and bears accession number ATCC HBT-20.\n184B5/HER cells were maintained in MEM-KBM mixed in a ratio of 1:1 (basal medium) containing epidermal growth factor (10 ng/ml), hydrocortisone (0.5 μg/ml), transferrin (10 μg/ml), gentamicin (5 μg/ml) and insulin (10 μg/ml) (growth medium). […] cells were grown to 60% confluence, trypsinized with 0.05% trypsin-2 mM ethylenediaminotetraacetic acid, and plated for experimental use. […]\n184B5/HER cells were treated with vehicle (0.01% dimethylsulfoxide), 25 μM ciglitazone (Biomol, Plymouth Meeting, Pennsylvania) or 20 μM 15-d-PGJ2 (Biomol, Plymouth Meeting, Pennsylvania) for 24 hours. […] The protein concentration of the supernatant was measured by the method of Lowry, O. H., et al, J. Biol. Chem. 193, 265-275 (1951). […]"}, "[7]": {"system": "EGFR transcription", "assay": "nuclear run-off assay of EGFR transcription in 184B5 cells", "format": "cell-based, human", "details": "ciglitazone 5, 10, 25 μM, 24 hours", "method": "To determine whether PPARγ ligands inhibit the transcription of EGFR, a nuclear run-off assay was carried out. 184B5 cells were treated with vehicle (0.01% dimethyl sulfoxide) or ciglitazone (5, 10, 25 μM) for 24 hours. 2.5×10^5 cells were plated in four T150 dishes for each condition. Cells were grown in growth medium until 60% confluent. Nuclei were isolated and stored in liquid nitrogen. The EGFR and 18S rRNA cDNAs were immobilized onto a nitrocellulose membrane (Schleicher & Schuell, Keene, N.H.) and prehybridized overnight in hybridization buffer."}, "[8]": {"system": "HER-2/neu positive breast cancer metastasized to bone", "assay": "Example IV: breast cancer metastasized to bone", "format": "in vivo, human", "details": "patient after failure of prior chemotherapy, oral 5 mg/kg twice daily plus HERCEPTIN", "method": "After 90 days, oral cyclophosphamide at a dose of 3 mg/kg/day and doxorubicin administered intravenously weekly at a dose of 20 mg/m^2, are added to the drug regimen."}, "[9]": {"system": "HER-2/neu transcription", "assay": "nuclear run-off assay of HER-2/neu transcription in 184B5/HER cells", "format": "cell-based, human", "details": "ciglitazone 5, 10 or 25 μM, 24 hours", "method": "To determine whether PPARγ ligands inhibit the transcription of HER-2/neu, a nuclear run-off assay was carried out. 184B5/HER cells were treated with vehicle (0.01% dimethyl sulfoxide) or ciglitazone (5,10 or 25 μM) for 24 hours. 2.5×10^5 cells were plated in four T150 dishes for each condition. Cells were grown in growth medium until 60% confluent. Nuclei were isolated and stored in liquid nitrogen. The HER-2/neu and 18S rRNA cDNAs were immobilized on a nitrocellulose membrane (Schleicher & Schuell, Keene, N.H.) and prehybridized overnight in hybridization buffer."}, "[10]": {"target": "human PPARγ binding domain", "details": "scintillation proximity assay, radioligand [3H]BRL 49653; values reported in Henke et al, Collins et al, Cobb et al; cited from earlier work"}, "[11]": {"system": "EGFR positive breast cancer", "assay": "Example IX: adjuvant therapy after mastectomy", "format": "in vivo, human", "details": "patient, oral 5 mg/kg twice daily for five years after mastectomy"}}, "data": [{"smiles": "CC1(COc2ccc(CC3SC(=O)NC3=O)cc2)CCCCC1", "note": "(centres unmarked) [ciglitazone]", "values": [{"measurement": "recurrence of colon cancer", "setting": "[1]", "value": "Recurrence of colon cancer does not occur"}, {"measurement": "recurrence of breast cancer", "setting": "[2]", "value": "Recurrence of breast cancer does not occur"}, {"measurement": "EGFR promoter activity (luciferase normalized to β-galactosidase)", "setting": "[3]", "value": "inhibited EGFR promoter activity in a dose-dependent fashion"}, {"measurement": "tumor burden", "setting": "[4]", "value": "reduced tumor burden"}, {"measurement": "recurrence of breast cancer", "setting": "[5]", "value": "Recurrence of breast cancer does not occur"}, {"measurement": "amount of HER-2/neu (immunoblot)", "setting": "[6]", "value": "decreased the amount of HER-2/neu"}, {"measurement": "EGFR transcription (nuclear run-off)", "setting": "[7]", "value": "dose-dependent suppression of EGFR transcription"}, {"measurement": "tumor burden", "setting": "[8]", "value": "reduced tumor burden"}, {"measurement": "HER-2/neu transcription (nuclear run-off)", "setting": "[9]", "value": "dose-dependent suppression of HER-2/neu transcription"}, {"measurement": "pKi in binding assay using the human PPARγ binding domain", "setting": "[10]", "value": "5.51±0.09"}, {"measurement": "recurrence of breast cancer", "setting": "[11]", "value": "Recurrence of breast cancer dose not occur"}]}]}
